Laboratory results reported in patent US4877893A, “Process for the preparation of 2-(O-alkyl)-2-thio-1,3,2-oxathiophospholanes” (priority 1987, dated 1989).

What was measured:
Alternaria tenuis = assay: Fungicidal effect on infected agar nutrient media, colony diameter; assay type: cell-based; details: 5th day after treatment, untreated control 36.8
Outline: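 Agar media (70 mm diameter, 10 mm thick) infected with Alternaria tenuis, treated with EC formulations at 1, 10, 100 and 1000 ppm active ingredient. Fungicidal effect read on day 5 after treatment as fungal colony diameter.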

Sclerotinia sp. = assay: Fungicidal effect on paprika seeds on agar, colony diameter; assay type: cell-based; details: 5th day, control 41.50
Experimental: (§1) The test is carried out on paprika seeds placed on agar nutrient medium and impregnated with phytopathogenic Fungi (Alternaria sp., Penicillium sp., Sclerotinia sp.). The paprika seeds are treated with various doses of 2-(0-2'-chloroethyl)-2-thio-1,3,2-oxathiophospholane (Compound No. 1 of Table I) and the known fungicidal agent Aliette, respectively.
(§2) The concentration data relate to the active ingredient. Treatment is carried out by using a 20 EC prepared according to Example 27. Evaluation is carried out on the 5th day after treatment by measuring the diameter of the Fungi colonies.

Alternaria sp. = assay: as above; assay type: cell-based; details: 5th day, control 36.62
Experimental: as §1, §2

Penicillium sp. = assay: as above; assay type: cell-based; details: 5th day, control 23.35
Experimental: as §1, §2

[1] = system: Fusarium sp. and Alternaria sp.; assay: Soil disinfection test, shoot up %; assay type: in vivo, sugar beet; details: 1 kg of active ingredient/ha; soil disinfectant granules; untreated control = 100
Experimental: (§3) The soil is watered and admixed with a Fusarium sp. and Alternaria sp. suspension. In the infected soil cotton and sugar beet seeds are sown, namely 10 seeds per replicate. Eight replicates are used in the test. The soil is treated with 2-(0-2'-chloroethyl)-2-thio-1,3,2-oxathiophospholane (Compound No. 1) in a dose of 1 kg of active ingredient.ha^- 1. Treatment is carried out with soil disinfectant granules prepared in an analogous manner to Example 33. Evaluation is carried out by determining the shoot up % related to the untreated control.

[2] = system: cotton seeds strongly infected by pathogens; assay: Seed dressing test, shoot up %; assay type: in vivo; details: related to untreated control = 100
Description: (§4) In this test cotton, maize, sunflower and sugar beet seeds strongly infected by pathogens and treated with different doses of 2-(0-2'-chloroethyl)-2-thio-1,3,2-oxathiophospholane (Compound No. 1) are used. The doses amount to 50, 100 and 200 g of active ingredient, respectively. As reference seeds being either untreated or treated with Mancozeb (manganese +zinc/-ethylene bis-dithiocarbamte) 0.8 kg/t +Benomyl (1-butyl carbamoyl-benzimidazole-2-methylcarbamate) 0.5 kg/t are used.
(§5) Compound No. 1 of the present invention is formulated as 50 WP in an analogous manner to Example 31. The test is carried out in six replicates, by sowing 10 seeds in each replicate. The results are evaluated by determining the shoot up % related to the control.

[3] = system: sunflower seeds strongly infected by pathogens; assay: Seed dressing test, shoot up %; assay type: in vivo; details: related to untreated control = 100
Description: as §4, §5

[4] = system: sugar beet seeds strongly infected by pathogens; assay: Seed dressing test, shoot up %; assay type: in vivo; details: related to untreated control = 100
Description: as §4, §5

[5] = system: maize seeds strongly infected by pathogens; assay: Seed dressing test, shoot up %; assay type: in vivo; details: related to untreated control = 100
Description: as §4, §5

[6] = system: Fusarium sp. and Alternaria sp.; assay: Soil disinfection test, shoot up %; assay type: in vivo, cotton; details: 1 kg of active ingredient/ha; soil disinfectant granules; untreated control = 100
Experimental: as §3

Sclerotinia sclerotinia = assay: Fungicidal effect on infected agar nutrient media, colony diameter; assay type: cell-based; details: 3rd day after treatment, untreated control 41.7
Experimental: Agar nutrient media (Diameter 70 MM, thickness 10 mm) infected by Sclerotonia sclerotinia suspension are treated with 20 EC formulations prepared according to Example 27 and comprising 1, 10, 100 and 1000 ppm, respectively of the active ingredient of the Formula I. The fungicidal effect of the compositions is evaluated on the 3rd day after treatment by measuring the diameter of the Fungi colonies.

Penicillium cyclopium = assay: as above; assay type: cell-based; details: 7th day after treatment, untreated 26.5
Outline: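 Agar media (70 mm diameter, 10 mm thick) infected with Penicillium cyclopium were treated with EC formulations at 1, 10, 100 and 1000 ppm active ingredient. Fungal colony diameter was measured on day 7 after treatment.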

S=P1(OCCCl)OCCS1 (centres unmarked) [Compound 1, 2-(O-2'-chloroethyl)-2-thio-1,3,2-oxathiophospholane]
Diameter of colony (mm) (Alternaria tenuis; 1 ppm): 33.5 mm
Diameter of colony (mm) (Alternaria tenuis; 10 ppm): 25.8 mm
Diameter of colony (mm) (Alternaria tenuis; 100 ppm): 7.6 mm
Diameter of colony (mm) (Alternaria tenuis; 1000 ppm): 0 mm
Diameter of Colony (MM) Sclerotinia (Sclerotinia sp.; 1 ppm): 39.37 MM
Diameter of Colony (MM) Sclerotinia (Sclerotinia sp.; 5 ppm): 40.62 MM
Diameter of Colony (MM) Sclerotinia (Sclerotinia sp.; 10 ppm): 31.75 MM
Diameter of Colony (MM) Sclerotinia (Sclerotinia sp.; 50 ppm): 10.62 MM
Diameter of Colony (MM) Sclerotinia (Sclerotinia sp.; 100 ppm): 3.50 MM
Diameter of Colony (MM) Sclerotinia (Sclerotinia sp.; 1000 ppm): 0 MM
Diameter of Colony (MM) Alternaria (Alternaria sp.; 1 ppm): 33.50 MM
Diameter of Colony (MM) Alternaria (Alternaria sp.; 5 ppm): 32.25 MM
Diameter of Colony (MM) Alternaria (Alternaria sp.; 10 ppm): 25.87 MM
Diameter of Colony (MM) Alternaria (Alternaria sp.; 50 ppm): 16.75 MM
Diameter of Colony (MM) Alternaria (Alternaria sp.; 100 ppm): 7.62 MM
Diameter of Colony (MM) Alternaria (Alternaria sp.; 1000 ppm): 0 MM
Diameter of Colony (MM) Penicillium (Penicillium sp.; 1 ppm): 22.20 MM
Diameter of Colony (MM) Penicillium (Penicillium sp.; 5 ppm): 20.05 MM
Diameter of Colony (MM) Penicillium (Penicillium sp.; 10 ppm): 20.05 MM
Diameter of Colony (MM) Penicillium (Penicillium sp.; 50 ppm): 19.40 MM
Diameter of Colony (MM) Penicillium (Penicillium sp.; 100 ppm): 8.12 MM
Diameter of Colony (MM) Penicillium (Penicillium sp.; 1000 ppm): 0 MM
Shoot up % Sugar beet [1]: 346%
Shoot up % Cotton ([2]; 50 g/t): 146%
Shoot up % Cotton ([2]; 100 g/t): 218%
Shoot up % Cotton ([2]; 200 g/t): 255%
Shoot up % Sunflower ([3]; 50 g/t): 132%
Shoot up % Sunflower ([3]; 100 g/t): 154%
Shoot up % Sunflower ([3]; 200 g/t): 129%
Shoot up % Sugar beet ([4]; 50 g/t): 205%
Shoot up % Sugar beet ([4]; 100 g/t): 312%
Shoot up % Sugar beet ([4]; 200 g/t): 156%
Shoot up % Maize ([5]; 50 g/t): 121%
Shoot up % Maize ([5]; 100 g/t): 133%
Shoot up % Maize ([5]; 200 g/t): 125%
Shoot up % Cotton [6]: 239%
Diameter of colony (mm) (Sclerotinia sclerotinia; 1 ppm): 39.4 mm
Diameter of colony (mm) (Sclerotinia sclerotinia; 10 ppm): 31.7 mm
Diameter of colony (mm) (Sclerotinia sclerotinia; 100 ppm): 3.5 mm
Diameter of colony (mm) (Sclerotinia sclerotinia; 1000 ppm): 0 mm
Diameter of colony (mm) (Penicillium cyclopium; 1 ppm): 23.2 mm
Diameter of colony (mm) (Penicillium cyclopium; 10 ppm): 20.0 mm
Diameter of colony (mm) (Penicillium cyclopium; 100 ppm): 8.0 mm
Diameter of colony (mm) (Penicillium cyclopium; 1000 ppm): 0 mm

CC(CCl)OP1(=S)OC(C)C(C)S1 (centres unmarked) [Compound 34, 2-(0-1'-methyl-2'-chloroethyl)-2-thio-4,5-dimethyl-1,3,2-oxathiophospholane]
Diameter of colony (mm) (Alternaria tenuis; 1 ppm): 30.3 mm
Diameter of colony (mm) (Alternaria tenuis; 10 ppm): 25.9 mm
Diameter of colony (mm) (Alternaria tenuis; 100 ppm): 5.7 mm
Diameter of colony (mm) (Alternaria tenuis; 1000 ppm): 0 mm
Diameter of colony (mm) (Sclerotinia sclerotinia; 1 ppm): 34.6 mm
Diameter of colony (mm) (Sclerotinia sclerotinia; 10 ppm): 23.9 mm
Diameter of colony (mm) (Sclerotinia sclerotinia; 100 ppm): 1.3 mm
Diameter of colony (mm) (Sclerotinia sclerotinia; 1000 ppm): 0 mm
Diameter of colony (mm) (Penicillium cyclopium; 1 ppm): 19.7 mm
Diameter of colony (mm) (Penicillium cyclopium; 10 ppm): 16.5 mm
Diameter of colony (mm) (Penicillium cyclopium; 100 ppm): 4.9 mm
Diameter of colony (mm) (Penicillium cyclopium; 1000 ppm): 0 mm

CCO[PH](=O)O [Aliette, aluminum-tris-(O-ethyl-phosphate), reference compound]
Diameter of Colony (MM) Sclerotinia (Sclerotinia sp.; 1 ppm): 40.45 MM
Diameter of Colony (MM) Sclerotinia (Sclerotinia sp.; 5 ppm): 39.64 MM
Diameter of Colony (MM) Sclerotinia (Sclerotinia sp.; 10 ppm): 36.44 MM
Diameter of Colony (MM) Sclerotinia (Sclerotinia sp.; 50 ppm): 28.06 MM
Diameter of Colony (MM) Sclerotinia (Sclerotinia sp.; 100 ppm): 22.40 MM
Diameter of Colony (MM) Sclerotinia (Sclerotinia sp.; 1000 ppm): 6.75 MM
Diameter of Colony (MM) Alternaria (Alternaria sp.; 1 ppm): 34.05 MM
Diameter of Colony (MM) Alternaria (Alternaria sp.; 5 ppm): 35.16 MM
Diameter of Colony (MM) Alternaria (Alternaria sp.; 10 ppm): 29.41 MM
Diameter of Colony (MM) Alternaria (Alternaria sp.; 50 ppm): 26.13 MM
Diameter of Colony (MM) Alternaria (Alternaria sp.; 100 ppm): 19.16 MM
Diameter of Colony (MM) Alternaria (Alternaria sp.; 1000 ppm): 8.92 MM
Diameter of Colony (MM) Penicillium (Penicillium sp.; 1 ppm): 21.35 MM
Diameter of Colony (MM) Penicillium (Penicillium sp.; 5 ppm): 20.66 MM
Diameter of Colony (MM) Penicillium (Penicillium sp.; 10 ppm): 18.45 MM
Diameter of Colony (MM) Penicillium (Penicillium sp.; 50 ppm): 17.63 MM
Diameter of Colony (MM) Penicillium (Penicillium sp.; 100 ppm): 16.62 MM
Diameter of Colony (MM) Penicillium (Penicillium sp.; 1000 ppm): 10.15 MM

CC(CBr)OP1(=S)OC(C)C(C)S1 (centres unmarked) [Compound 35]
Diameter of colony (mm) (Alternaria tenuis; 1 ppm): 34.7 mm
Diameter of colony (mm) (Alternaria tenuis; 10 ppm): 27.1 mm
Diameter of colony (mm) (Alternaria tenuis; 100 ppm): 6.2 mm
Diameter of colony (mm) (Alternaria tenuis; 1000 ppm): 0 mm
Diameter of colony (mm) (Sclerotinia sclerotinia; 1 ppm): 38.1 mm
Diameter of colony (mm) (Sclerotinia sclerotinia; 10 ppm): 25.7 mm
Diameter of colony (mm) (Sclerotinia sclerotinia; 100 ppm): 2.6 mm
Diameter of colony (mm) (Sclerotinia sclerotinia; 1000 ppm): 0 mm
Diameter of colony (mm) (Penicillium cyclopium; 1 ppm): 25.1 mm
Diameter of colony (mm) (Penicillium cyclopium; 10 ppm): 14.7 mm
Diameter of colony (mm) (Penicillium cyclopium; 100 ppm): 8.3 mm
Diameter of colony (mm) (Penicillium cyclopium; 1000 ppm): 0 mm

CCCC(C)OP1(=S)OCCS1 (centres unmarked) [Compound 62, 2-(0-1'-methyl-n-butyl)-2-thio-1,3,2-oxathiophospholane]
Diameter of colony (mm) (Alternaria tenuis; 1 ppm): 34.1 mm
Diameter of colony (mm) (Alternaria tenuis; 10 ppm): 25.7 mm
Diameter of colony (mm) (Alternaria tenuis; 100 ppm): 6.9 mm
Diameter of colony (mm) (Alternaria tenuis; 1000 ppm): 0 mm
Diameter of colony (mm) (Sclerotinia sclerotinia; 1 ppm): 37.0 mm
Diameter of colony (mm) (Sclerotinia sclerotinia; 10 ppm): 30.2 mm
Diameter of colony (mm) (Sclerotinia sclerotinia; 100 ppm): 3.9 mm
Diameter of colony (mm) (Sclerotinia sclerotinia; 1000 ppm): 0 mm
Diameter of colony (mm) (Penicillium cyclopium; 1 ppm): 26.1 mm
Diameter of colony (mm) (Penicillium cyclopium; 10 ppm): 20.2 mm
Diameter of colony (mm) (Penicillium cyclopium; 100 ppm): 7.4 mm
Diameter of colony (mm) (Penicillium cyclopium; 1000 ppm): 0 mm
